In patent publication US7763580B2, “Methods for treating conditions associated with the accumulation of excess extracellular matrix” (University of Utah Research Foundation, priority 1999, dated 2010):

Legend:
[1] = tested on: Normal fetal human mesangial cells; experiment: Renin-induced TGFβ production by fetal human mesangial cells (ELISA); format: cell-based; conditions: 10^−5 M inhibitor added at zero time with 10^−7 M human recombinant renin, FIG. 3
Method: Normal fetal human mesangial cells (Clonetics Corp., Clonetics, Walkersville, Md.) passaged 5 to 8 times, were plated (3,000 cell/cm^2) in 12 well plates in 2 ml of medium (Mesangial Basal Medium (Clonetics Corp.) containing 5% FCS, 10 μg/ml penicillin and 100 μg/ml streptomycin) and allowed to grow to confluence for 48 hours at 37EC, 5% CO2. Cultures were washed three times using sterile phosphate buffered saline at room temperature and then 2 ml/well of serum free MBM medium to induce quiescence. After 48 hours, the serum-free medium was removed and 2 ml/well of fresh serum-free medium was added. Human recombinant renin (Hoffman-La Roche Ltd., Basel, Switzerland) in concentrations from 10^−6 to 10^−12 M was added to each well. A blank and 5 ng/ml of TGFβ (R & D Systems, Minneapolis, Minn.) were used as controls. Cells and supernatants were harvested by centrifugation after 24 hrs of culture and frozen at ^−70EC until analysis. The total production and release of TGFβ into the culture supernatant was measured using an ELISA kit (R & D Systems). Induction of PAI-1 and fibronectin in the supernatant are also measured using anti-PAI-1 and anti-fibronectin antibodies in an ELISA to provide further confirmation of the inhibition of TGFβ. TGFβ, fibronectin and PAI-1 mRNA are measured using semi-quantitative RT-PCR.
Renin inhibitor Ro42-5892 (Hoffman-LaRoche, Basel, Switzerland), Losartan™ (Merck Pharmaceuticals, West Point, Pa.), Enalapril™ (Sigma Chemical Co., St. Louis, Mo., Prod. No. E6888), or TGFβ1 neutralizing antibody (R & D Systems) were added in the amounts indicated below to separate wells in triplicate to block the renin cascade at different sites after stimulation by renin: • 10^−5 M Renin Inhibitor R042-5892 (Hoffman-LaRoche) • 30 ng/ml Anti-TGFβ1 antibody (R & D Systems, #AB 101 NA) • 30 ng/ml Chicken IgG (control for anti-TGFβ1 antibody, R & D Systems, # AB 101 C) • 10^−5 M Enalapril™ (Sigma Chemical Co., St. Louis, Mo.) • 10^−5 M Losartan™ (Merck Pharmaceuticals, West Point, Pa.)
(§1) These inhibitors were added at zero time with 10^−7 M human recombinant renin (Hoffman-LaRoche).

[2] = tested on: anti-Thy 1 model; conditions: monotherapy, anti-Thy 1 model (Peters et al.); L-arginine 1% in drinking water; cited from earlier work
[3] = tested on: adult human mesangial cells; experiment: Renin-induced TGFβ and fibronectin production by adult human mesangial cells (ELISA); format: cell-based; conditions: 10^−5 M inhibitor added at zero time with 10^−7 M human recombinant renin, adult cells, FIG. 7
Method: Primary cultures of adult human mesangial cells were grown from human nephrectomy tissues using standard methods. Cells were passaged 4-7 times and then plated (3,000 cell/cm^2) in 12 well plates in 2 ml of medium (Mesangial Basal Medium (Clonetics Corp.) containing 5% FCS, 10 μg/ml penicillin and 100 μg/ml streptomycin) and allowed to grow to 70% confluency for 48 hours at 37EC, 5% CO2. Cultures were washed three times using sterile phosphate buffered saline at room temperature and then 2 ml/well of serum free MBM medium to induce quiescence. After 48 hours, the serum-free medium was removed and 2 ml/well of fresh serum-free medium was added for 24 hours. Human recombinant renin (HrRenin, Hoffman-La Roche Ltd., Basel, Switzerland) in concentrations from 10^−6 to 10^−12 M was added to each well for 24 hours. A blank (no HrRenin) was used as a control. Cells and supernatants were harvested by centrifugation after 24 hrs of culture and frozen at ^−70EC until analysis.
The total production and release of TGFβ into the culture supernatant was measured using an ELISA kit (R & D Systems). Induction of the matrix protein fibronectin (Fn) in the supernatant was measured using anti-fibronectin antibodies in an ELISA to provide further confirmation of induction of TGFβ. Renin-induced induction of TGFβ, fibronectin and PAI-1 mRNA were measured over time using semi-quantitative RT-PCR in a multiplex system where multiple cDNAs are amplified simultaneously according to Dostal et al., Anal. Biochem. 223:239-250 (1994), incorporated by reference herein Determinations were done in triplicate mesangial cell cultures.
Renin inhibitor Ro42-5892 (Hoffman-LaRoche, Basel, Switzerland), Losartan™ (Merck Pharmaceuticals, West Point, Pa.), Enalapril™ (Sigma Chemical Co., St. Louis, Mo., Prod. No. E6888), or TGFβ1 neutralizing antibody (R & D Systems) were added in the amounts indicated below to separate wells in triplicate to block the renin cascade at different sites after stimulation by renin: • 10^−5 M Renin Inhibitor R042-5892 (Hoffman-LaRoche) • 10^−5 M Enalapril™ (Sigma Chemical Co., St. Louis, Mo.) • 10^−5 M Losartan™ (Merck Pharmaceuticals, West Point, Pa.) • Controls included neutralizing antibody to TGFβ (ATG) and control IgG (TgG)
as §1

## CCOC(=O)[C@H](CCc1ccccc1)N[C@@H](C)C(=O)N1CCC[C@H]1C(=O)O [enalapril]
[1]
  renin-induced increase in TGFβ production: does not reduce the renin-induced increase in TGFβ production
[2]
  reduction of markers of fibrotic disease: about 50%
[3]
  renin-induced increase in TGFβ production: does not reduce the renin-induced increase in TGFβ production
